Assay results: patent US9579313B2, “Hepatitis B antiviral agents” (Novira Therapeutics, Inc., priority 2013, dated 2017)

How the values were obtained:
[1] = target: T1, HBV C150Bo capsid protein (HBV CA protein) (Hepatitis B virus genotype D subtype adw, UniProt P03147, C107A/C48A/C61A/R150C); experiment: HBV assembly assay (fluorescence quenching in vitro capsid assembly); assay type: biochemical
T1 construct: amino acids 1-150, C49A, C61A, C107A, 150C; made in house; host or cells: E. coli
Source text: The fluorescence quenching in vitro assembly HBV assay was developed according to a method described by Zlotnick and coworkers (Nature Biotechnology 2006, 24:358). The assay is based on the observation that the C-termini of the HBV core protein cluster together during capsid formation. This assay utilizes a mutant C150 HBV capsid protein where all wild-type cysteines are mutated to alanines, but a C-terminal cysteine residue is preserved and is labeled with fluorescent BoDIPY-FL dye. […] Thus, the assay measures the ability and potency of test compounds to modulate capsid assembly by monitoring the fluorescence of the labeled capsid C150Bo protein.
In a typical assay, the mutant HBV C150 protein (amino acids 1-150, C49A, C61A, C107A, 150C) is cloned into a T7 RNA-polymerase based expression vector, expressed in E. coli and purified to homogeneity as a dimer. The purified HBV core protein is desalted and labeled with BODIPY-FL Dye.
In a non-limiting embodiment, the assembly assay is conducted in 96-well plate format. The assembly reactions are carried out in 50 mM Hepes buffer, pH 7.5 and 150 mM NaCl. The compounds are pre-incubated with the HBV CA protein for 15 min, and the assembly reactions are initiated by addition of NaCl. The reaction is allowed to continue for 1 hour at room temperature.
To determine the effect on capsid assembly, each test compound is initially screened at 4 different concentrations: 10 μM, 3 μM, 1 μM and 0.3 μM in duplicates. […] Identified primary hits are confirmed in follow-up studies as described elsewhere herein. […] EC50 values for test compounds are determined via analysis of the dose-response curve.
Selected compounds of the invention were assayed in the HBV assembly assay, as described elsewhere herein. The assembly assay was conducted in 96-well plate format. The assembly reactions were carried out in 50 mM Hepes buffer, pH 7.5 and 150 mM NaCl. The compounds were pre-incubated with the HBV CA protein for 15 min, and the assembly reactions were initiated by addition of NaCl. The reaction was allowed to continue for 1 hour at room temperature.
To determine the effect on capsid assembly, each test compound was initially screened at 4 different concentrations: 10 μM, 3 μM, 1 μM and 0.3 μM in duplicates.

[2] = system: HBV replication in HepG2-2.2.15 cells; experiment: Dot-blot assay of HBV replication (HBV DNA levels); conditions: Hepatitis B virus, HepG2 2.2.15, 144 h, read-out: Activity in dot-blot-assay (EC50, reduction in HBV DNA levels)
Method: In the first anti-viral assay, the ability of compounds to inhibit HBV replication in an HBV-producing hepatoma cell line using the dot-blot method is evaluated.
Briefly, confluent monolayers of HepG2-2.2.15 cells are incubated with complete medium containing various concentrations of a test compound. Three days later, the culture medium is replaced with fresh medium containing the appropriately diluted test compound. Six days following the initial administration of the test compound, the cell culture supernatant is collected, and cell lysis is performed. The samples are applied onto Nylos membranes and DNA is immobilized to the membrane by UV cross-linking. After pre-hybridization, the HBV probe is added and the hybridization is performed overnight. The membranes are exposed to the Kodak films; antiviral activity is calculated from the reduction in HBV DNA levels (EC50).
In the first anti-viral assay, the ability of compounds to inhibit HBV replication in an HBV-producing hepatoma cell line using the dot-blot method was evaluated.
Confluent monolayers of HepG2-2.2.15 cells were incubated with complete medium containing various concentrations of a test compound. Three days later, the culture medium was replaced with fresh medium containing the appropriately diluted test compound. Six days following the initial administration of the test compound, the cell culture supernatant was collected, and cell lysis was performed. The samples were applied onto Nylos membranes and DNA was immobilized to the membrane by UV cross-linking. After pre-hybridization, the HBV probe was added and the hybridization was performed overnight. The membranes were exposed to the Kodak films; antiviral activity was calculated from the reduction in HBV DNA levels (EC50).

T1 sequence (P03147 1-150 C48A/C61A/C107A/R150C): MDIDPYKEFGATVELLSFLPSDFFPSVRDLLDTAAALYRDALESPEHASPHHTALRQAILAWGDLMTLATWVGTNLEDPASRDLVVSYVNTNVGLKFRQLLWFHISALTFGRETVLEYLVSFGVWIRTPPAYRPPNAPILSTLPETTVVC

SMILES | EC50 [1] | EC50 [2] | EC50 of control compounds in assembly assay ([1]; control compounds)
O=C(Nc1cc(F)c(F)c(F)c1)c1cc(S(=O)(=O)N2CCC(CO)C(O)C2)cc2[nH]ccc12 (stereo not shown) [Compound 1291] | < 10 µM | – | –
NC1CCN(S(=O)(=O)c2cc(C(=O)Nc3cc(F)c(F)c(F)c3)c3cc[nH]c3c2)CC1 [Compound 1508] | < 10 µM | < 10 µM | –
COC1(CO)CCN(S(=O)(=O)c2cc(C(=O)Nc3cc(F)c(F)c(F)c3)c3cc[nH]c3c2)CC1 [Compound 1536] | < 10 µM | – | –
O=C(Nc1ccc(F)c(F)c1)c1cc(S(=O)(=O)N2CC(O)C(F)C2)cc2[nH]ccc12 (stereo not shown) [Compound 1296] | < 10 µM | – | –
COC1(CO)CCN(S(=O)(=O)c2cc(C(=O)Nc3ccc(F)c(Cl)c3)c3cc[nH]c3c2)CC1 [Compound 1537] | – | < 10 µM | –
O=C(Nc1cc(F)c(F)c(F)c1)c1cc(S(=O)(=O)N2CC(O)C2)cc2[nH]ccc12 [Compound 1299] | < 10 µM | – | –
COCC1(O)CCN(S(=O)(=O)c2cc(C(=O)Nc3cc(F)c(F)c(F)c3)c3cc[nH]c3c2)CC1 [Compound 1533] | < 10 µM | < 10 µM | –
O=C(Nc1ccc(F)c(F)c1)c1cc(S(=O)(=O)N2CCC(CO)C(O)C2)cc2[nH]ccc12 (stereo not shown) [Compound 1292] | < 10 µM | – | –
O=C(Nc1ccc(F)c(Cl)c1)c1cc(S(=O)(=O)N2CCC(O)CC2)c2[nH]cnc2c1 [Compound 1472] | – | < 10 µM | –
COC(=O)C1=C(C)NC(c2ccccn2)=NC1c1ccc(F)cc1Cl (stereo not shown) [HAP-1, reference compound] | – | – | consistent with the literature
O=C(Nc1ccc(F)c(Cl)c1)c1cc(S(=O)(=O)N2CCC(O)CC2)cc2[nH]ccc12 [Compound 949] | < 10 µM | < 10 µM | –
O=C(Nc1ccc(F)c(F)c1)c1cc(S(=O)(=O)N2CC(O)C2)cc2[nH]ccc12 [Compound 1300] | < 10 µM | < 10 µM | –
O=C(Nc1cc(F)c(F)c(F)c1)c1cc(S(=O)(=O)N2CCC(O)CC2)cc2[nH]ccc12 [Compound 1287] | < 10 µM | – | –
COCC1(O)CCN(S(=O)(=O)c2cc(C(=O)Nc3ccc(F)c(F)c3)c3cc[nH]c3c2)CC1 [Compound 1535] | < 10 µM | < 10 µM | –
COCC1(O)CCN(S(=O)(=O)c2cc(C(=O)Nc3ccc(F)c(Cl)c3)c3cc[nH]c3c2)CC1 [Compound 1534] | < 10 µM | – | –
O=C(Nc1ccc(F)c(Cl)c1)c1cc(S(=O)(=O)N2CCC(O)(CO)CC2)cc2[nH]ccc12 [Compound 1302] | – | < 10 µM | –
O=C(Nc1ccc(F)c(F)c1)c1cc(S(=O)(=O)N2CCC(O)(CO)CC2)cc2[nH]ccc12 [Compound 1304] | < 10 µM | – | –
O=C(Nc1cc(F)c(F)c(F)c1)c1cc(S(=O)(=O)N2CCC(O)(CO)CC2)cc2[nH]ccc12 [Compound 1303] | < 10 µM | – | –
O=C(Nc1ccc(F)c(Cl)c1)c1cc(S(=O)(=O)N2CCC(CO)C(O)C2)cc2[nH]ccc12 (stereo not shown) [Compound 1290] | – | < 10 µM | –
O=C(Nc1ccc(F)c(F)c1)c1cc(S(=O)(=O)N2CCC(O)CC2)cc2[nH]ccc12 [Compound 1288] | – | < 10 µM | –
O=C(Nc1ccc(F)c(Cl)c1)c1cc(S(=O)(=O)N2CC(O)C2)cc2[nH]ccc12 [Compound 1298] | – | < 10 µM | –
O=C(Nc1ccc(F)c(Cl)c1)c1cc(S(=O)(=O)N2CC(O)C(F)C2)cc2[nH]ccc12 (stereo not shown) [Compound 1294] | < 10 µM | < 10 µM | –
